# Experiments:
# [1] = test system: differentiating TH17 cells; assay: TH17 differentiation of CD4 naïve T cells (IL17F-RFP/FOXP3-GFP reporter or intracellular staining of IL-17 and FOXP3); type: cell-based, mouse; details: compound added after 24 hours of TH17 differentiation, analyzed on day 6
# Procedure: CD4 naïve T cells (CD4+CD25-CD62^highCD44^low) were obtained from interleukin (IL)-17F-red fluorescent protein (RFP)/FOXP3-green fluorescent protein (GFP) mice, which were characterized previously, or wild-type C57/BL6 mice, by cell sorting. 0.4 million cells were plated into 48 wells coated with anti-mouse CD3 (clone 145-2C11, eBioscience) […] and anti-mouse CD28 (clone 37.51, eBioscience) (1 μg/ml). The differentiation media for these naïve T cells was as follows: 0.5 ng/ml (or indicated) transforming growth factor (TGF) β, 200 U/ml mouse IL-2, 2 μg/ml anti-interferon (IFN) γ and 2 μg/ml anti-mouse IL4 for differentiation into iTreg cells; and 2.5 ng/ml TGFβ, 10 ng/ml mouse IL-1β, 10 ng/ml mouse IL-6, 10 ng/ml mouse IL-23, 2 μg/ml anti-mouse IFNγ, and anti-mouse IL-4 for differentiating into TH17 cells. The cells were supplemented with new medium at day 4. In cases in which small-molecule compounds were present, the fresh medium containing the same concentration of compounds was used. When necessary, the individual metabolite was added into the T-cell culture 6 hours later after initial cell plating. On day 6, the cells were analyzed for IL17F-RFP and FOXP3-GFP or the cells were collected and restimulated for 4-6 hours with PMA, inomycin, and Golgi-stop for intracellular staining in absence of indicated compounds.
# To identify small molecules that regulate cell-fate switching of TH17/iTreg cells and to further understand the regulation of the TH17/iTreg balance, 10,000 individual small molecules were phenotypically screened using CD4 naïve T cells from IL-17F-RFP/FOXP3-GFP mice. The naïve T cells were cultured under optimal TH17 differentiation conditions and compounds that could reprogram TH17 differentiation toward iTreg cell fate were identified using the reporter readout. Briefly, after TH17 differentiation for 24 hours, compounds were added to TH17 culture, and the treatment was continued for an additional 5 days before the cells were analyzed for IL17F-RFP and FOXP3-GFP expression by high-throughput fluorescence-activated cell sorting (FACS) (FIG. 5a). […] This effect of reprogrammed differentiation was further confirmed by intracellular immunostaining of IL-17 and FOXP3 (FIG. 1a).
# [2] = test system: differentiating iTreg cells; assay: U-13C glutamine flux analysis in differentiating iTreg cells; type: cell-based, mouse; details: 2 mM U-13C-glutamine for 4 hours
# Procedure: CD4 naïve T cells, differentiating TH17 or iTreg cells (68 hours) were incubated with fresh media prior to labeling. The cells were then cultured for 4 hours at 37° C. with medium where the glutamine was replaced with the corresponding stable isotope label: 2 mM U-^13C glutamine or 2 mM ^15N-α-glutamine for 4 hours at 37° C. The cells were quickly collected and quickly washed with phosphate buffer saline (PBS), pelleted, and snap frozen in liquid nitrogen. The frozen samples were kept in −80° C. until extraction. Cell extracts were prepared by first adding 80/20 MeOH/H2O at −60° C. to the frozen pellets and collecting the supernatant after centrifugation at 4° C. The extracted samples were analyzed by high-resolution liquid-chromatography-mass spectrometry. Unlabeled glutamine-fed cells were used as background. For negative mode metabolomics: Cell extracts obtained as described above were analyzed for relative abundance of metabolites by liquid chromatography-triple quadrupole mass spectrometry (LC-MS) using scheduled selective reaction monitoring (SRM) for each metabolite of interest, with the detector set to negative mode. Prior to injection, dried extracts were reconstituted in LC-MS grade water. LC separation was achieved by reverse-phase ion-pairing chromatography.
structure (smiles),measurement,setting,value
"NOCC(=O)O [AOA, (aminooxy)-acetic acid]",reprogramming of TH17 induction to iTreg cells (IL17F-expressing and FOXP3-expressing cells),[1],reprogram TH17 induction to iTreg cells in a dose-dependent manner
same,"de novo synthesis of α-KG and 2-HG (U-13C labeled, normalized to U-13C-glutamine)",[2],inhibited
